Data published in patent US20260356856A1, “KRAS G12S AND G12C INHIBITORS” (MIRATI THERAPEUTICS, INC., priority 2023, published 2026).

Columns and labels:
[1] = target: T1, KRas G12C (Homo sapiens, UniProt P01116, G12C); assay: KRas binding assay, TR-FRET displacement of Cy5 labelled tracer; conditions: 60-minute incubation at room temperature, 1% DMSO, pH 7.5
T1 construct: Biotinylated KRas (corresponding to amino acids 1-169, produced at Accelegan Inc.); biotin (biotinylated); purchased Accelegan Inc
T1 sequence (P01116 1-169 isoform P01116-2 G12C): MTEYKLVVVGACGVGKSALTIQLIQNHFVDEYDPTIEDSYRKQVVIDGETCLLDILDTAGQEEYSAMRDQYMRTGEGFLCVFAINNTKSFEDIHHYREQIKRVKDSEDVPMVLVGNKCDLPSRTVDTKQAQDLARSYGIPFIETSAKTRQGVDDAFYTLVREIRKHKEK
Outline: (§1)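 Final conditions: 1% DMSO, pH 7.5 HEPES buffer, 60 min, room temperature. Protein: biotin-KRas 1-169 with terbium streptavidin. Output: IC50, four-parameter fit of POC.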

[2] = target: T2, KRas G12S (Homo sapiens, UniProt P01116, G12S); assay: as above; conditions: 60-minute incubation at room temperature, 1% DMSO, pH 7.5
T2 construct: Biotinylated KRas (corresponding to amino acids 1-169, produced at Accelegan Inc.); biotin (biotinylated); purchased Accelegan Inc
T2 sequence (P01116 1-169 isoform P01116-2 G12S): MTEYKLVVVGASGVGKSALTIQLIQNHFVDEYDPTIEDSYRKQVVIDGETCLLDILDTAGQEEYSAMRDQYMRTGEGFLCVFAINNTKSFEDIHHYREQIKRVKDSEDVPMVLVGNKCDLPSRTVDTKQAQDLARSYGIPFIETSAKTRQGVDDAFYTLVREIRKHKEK
Outline: as §1

[3] = target: T3, KRas WT (Homo sapiens, UniProt P01116); assay: as above; conditions: 60-minute incubation at room temperature, 1% DMSO, pH 7.5
T3 construct: Biotinylated KRas (corresponding to amino acids 1-169, produced at Accelegan Inc.); biotin (biotinylated); purchased Accelegan Inc
T3 sequence (P01116 1-169 isoform P01116-2): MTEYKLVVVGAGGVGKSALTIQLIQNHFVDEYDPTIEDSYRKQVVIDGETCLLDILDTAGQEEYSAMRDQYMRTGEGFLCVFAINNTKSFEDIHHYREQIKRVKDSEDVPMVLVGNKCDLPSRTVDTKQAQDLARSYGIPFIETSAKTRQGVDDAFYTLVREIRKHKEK
Outline: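 Assay buffer was HEPES (50 mM, pH 7.5) with MgCl2 (5 mM), DTT (1 mM) and Tween-20 (0.005%). Biotinylated KRas spanning residues 1-169 met tracer, terbium streptavidin and compound (1% DMSO, final) for 60 minutes at ambient temperature before reading. POC values were fitted for IC50.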

[4] = target: T4, KRas-mediated phosphorylation of ERK in MKN1 cells (Homo sapiens, UniProt P01116); assay: Inhibition of KRas-mediated phosphorylation of ERK (HTRF), MKN1 cells; type: cell-based; conditions: MKN1 cells (KRas WT); HTRF pERK; 3 h incubation
T4 construct: pERK HTRF read-out
T4 sequence (P01116 1-188 isoform P01116-2): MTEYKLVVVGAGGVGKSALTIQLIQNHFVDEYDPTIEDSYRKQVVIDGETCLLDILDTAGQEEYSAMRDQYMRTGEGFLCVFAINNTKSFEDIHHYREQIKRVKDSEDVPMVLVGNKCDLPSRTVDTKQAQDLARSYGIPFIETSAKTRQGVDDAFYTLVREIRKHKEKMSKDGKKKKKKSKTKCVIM
Procedure: Inhibition of KRas Phosphorylation of ERK (HTRF) by Exemplary Compounds of Formula (Ia) or (Ib)
Cisbio HTRF Advanced pERK Assay Catalog #64AERPEH • Cells: MKN1, PSN1 • Procedure: • 1. Day 1: Seed 6,000 cells/well −25 μl/well in 384-well white solid bottom plate; RPM1_10% FBS. Incubate overnight at 37 °C/5% CO2. • 2.

[5] = target: T5, KRas-mediated phosphorylation of ERK in A549 cells (Homo sapiens, UniProt P01116, G12S); assay: Inhibition of KRas-mediated phosphorylation of ERK (HTRF), A549 cells; type: cell-based; conditions: HTRF pERK, 3 h incubation
T5 construct: pERK HTRF read-out
T5 sequence (P01116 1-188 isoform P01116-2 G12S): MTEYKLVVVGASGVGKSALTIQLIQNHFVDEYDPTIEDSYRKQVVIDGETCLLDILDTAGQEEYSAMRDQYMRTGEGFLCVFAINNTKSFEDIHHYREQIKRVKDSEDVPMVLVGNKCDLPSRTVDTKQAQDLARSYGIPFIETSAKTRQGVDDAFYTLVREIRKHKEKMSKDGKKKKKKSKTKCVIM

[6] = target: T6, KRas-mediated phosphorylation of ERK in H358 cells (Homo sapiens, UniProt P01116, G12C); assay: Inhibition of KRas-mediated phosphorylation of ERK (HTRF), H358 cells; type: cell-based; conditions: HTRF pERK, 3 h incubation
T6 construct: pERK HTRF read-out
T6 sequence (P01116 1-188 isoform P01116-2 G12C): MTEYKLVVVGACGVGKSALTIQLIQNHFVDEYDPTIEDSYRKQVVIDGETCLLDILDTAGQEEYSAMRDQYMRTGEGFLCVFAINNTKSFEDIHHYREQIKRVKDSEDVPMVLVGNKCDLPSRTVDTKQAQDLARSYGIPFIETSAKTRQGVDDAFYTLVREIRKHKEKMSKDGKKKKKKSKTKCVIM

| IC50 [1] [nM] | IC50 [2] [nM] | IC50 [3] [nM] | IC50 [4] [nM] | IC50 [5] [nM] | IC50 [6] [nM] | Structure (SMILES) |
| --- | --- | --- | --- | --- | --- | --- |
| 3 | 8 | 13 | 252 | 448 | 9 | CN(CCNC(=O)n1cncn1)c1nc(OC[C@@]23CCCN2C[C@H](F)C3)nc2c(F)c(-c3ccc(F)c4sc(N)c(C#N)c34)c(Cl)cc12 [Example 228, N-(2-((7-(2-amino-3-cyano-7-fluorobenzo[b]thiophen-4-yl)-6-chloro-8-fluoro-2-(((2R,7aS)-2-fluorotetrahydro-1H-pyrrolizin-7a(5H)-yl)methoxy)quinazolin-4-yl)(methyl)amino)ethyl)-1H-1,2,4-triazole-1-carboxamide] |
| 2 | 4 | 7 | 540 | 25 | 59 | CN(C)Cc1ccn(C(=O)C2CCCN(c3nc(OC[C@@]45CCCN4C[C@H](F)C5)nc4c(F)c(-c5ccc(F)c6sc(N)c(C#N)c56)c(Cl)cc34)CC2)n1 (stereo partly drawn) [Example 205, 2-amino-4-(6-chloro-4-(4-(3-((dimethylamino)methyl)-1H-pyrazole-1-carbonyl)azepan-1-yl)-8-fluoro-2-(((2R,7aS)-2-fluorotetrahydro-1H-pyrrolizin-7a(5H)-yl)methoxy)quinazolin-7-yl)-7-fluorobenzo[b]thiophene-3-carbonitrile] |
| 17 | 80 | 154 | 217 | 169 | 16 | N#Cc1c(N)sc2c(F)ccc(-c3c(Cl)cc4c(N5CCC(C(=O)Oc6ccccc6Cl)CC5)nc(OC[C@@]56CCCN5C[C@H](F)C6)nc4c3F)c12 [Example 298, 2-chlorophenyl 1-(7-(2-amino-3-cyano-7-fluorobenzo[b]thiophen-4-yl)-6-chloro-8-fluoro-2-(((2R,7aS)-2-fluorotetrahydro-1H-pyrrolizin-7a(5H)-yl)methoxy)quinazolin-4-yl)piperidine-4-carboxylate] |
| 882 | 175 | 492 | 2420 | 151 | 4290 | CCc1c(F)ccc2cc(O)cc(-c3ncc4c(N5CCCC(C(=O)N(C)C(C)=O)CC5)nc(OC[C@@]56CCCN5C[C@H](F)C6)nc4c3F)c12 (stereo partly drawn) [Example 285, N-acetyl-1-(7-(8-ethyl-7-fluoro-3-hydroxynaphthalen-1-yl)-8-fluoro-2-(((2R,7aS)-2-fluorotetrahydro-1H-pyrrolizin-7a(5H)-yl)methoxy)pyrido[4,3-d]pyrimidin-4-yl)-N-methylazepane-4-carboxamide] |
| 23 | 45 | 99 | 299 | 101 | 32 | N#Cc1c(N)sc2c(F)ccc(-c3c(Cl)cc4c(N5CCC(C(=O)Oc6cccc(Cl)c6)CC5)nc(OC[C@@]56CCCN5C[C@H](F)C6)nc4c3F)c12 [Example 297, 3-chlorophenyl 1-(7-(2-amino-3-cyano-7-fluorobenzo[b]thiophen-4-yl)-6-chloro-8-fluoro-2-(((2R,7aS)-2-fluorotetrahydro-1H-pyrrolizin-7a(5H)-yl)methoxy)quinazolin-4-yl)piperidine-4-carboxylate] |
| 168 | 165 | 496 | 1110 | 281 | 1460 | CCc1c(F)ccc2cc(O)cc(-c3ncc4c(N5CCC(C(=O)N(C)C(=O)COC)CC5)nc(OC[C@@]56CCCN5C[C@H](F)C6)nc4c3F)c12 [Example 209, 1-(7-(8-ethyl-7-fluoro-3-hydroxynaphthalen-1-yl)-8-fluoro-2-(((2R,7aS)-2-fluorotetrahydro-1H-pyrrolizin-7a(5H)-yl)methoxy)pyrido[4,3-d]pyrimidin-4-yl)-N-(2-methoxyacetyl)-N-methylpiperidine-4-carboxamide] |
| 1690 | 2500 | 2090 | 8470 | 2030 | 930 | CCc1c(F)ccc2cc(O)cc(-c3ncc4c(N5CC[C@@H](C(=O)n6ccc(C)n6)[C@H](C)C5)nc(OC[C@@]56CCCN5C[C@H](F)C6)nc4c3F)c12 [Example 71, ((3S,4R)-1-(7-(8-ethyl-7-fluoro-3-hydroxynaphthalen-1-yl)-8-fluoro-2-(((2R,7aS)-2-fluorotetrahydro-1H-pyrrolizin-7a(5H)-yl)methoxy)pyrido[4,3-d]pyrimidin-4-yl)-3-methylpiperidin-4-yl)(3-methyl-1H-pyrazol-1-yl)methanone] |
| 66 | 62 | 16 | 44 | 775 | 658 | COCC(C)OC(=O)C1CCN(c2nc(OC[C@@]34CCCN3C[C@H](F)C4)nc3c(F)c(-c4ccc(F)c5sc(N)c(C#N)c45)c(Cl)cc23)CC1 (stereo partly drawn) [Example 240, 1-methoxypropan-2-yl 1-(7-(2-amino-3-cyano-7-fluorobenzo[b]thiophen-4-yl)-6-chloro-8-fluoro-2-(((2R,7aS)-2-fluorotetrahydro-1H-pyrrolizin-7a(5H)-yl)methoxy)quinazolin-4-yl)piperidine-4-carboxylate] |
| 234 | 346 | 378 | 1390 | 312 | 3110 | CCc1c(F)ccc2cc(O)cc(-c3ncc4c(N5CCC(C(=O)n6ccc(C(C)(C)C)n6)CC5)nc(OC[C@@]56CCCN5C[C@H](F)C6)nc4c3F)c12 [Example 75, (3-(tert-butyl)-1H-pyrazol-1-yl)(1-(7-(8-ethyl-7-fluoro-3-hydroxynaphthalen-1-yl)-8-fluoro-2-(((2R,7aS)-2-fluorotetrahydro-1H-pyrrolizin-7a(5H)-yl)methoxy)pyrido[4,3-d]pyrimidin-4-yl)piperidin-4-yl)methanone] |
| 9 | 23 | 289 | 279 | 55 | 12 | COc1cccc(OC(=O)C2CCN(c3nc(OC[C@@]45CCCN4C[C@H](F)C5)nc4c(F)c(-c5ccc(F)c6sc(N)c(C#N)c56)c(Cl)cc34)CC2)c1 [Example 244, 3-methoxyphenyl 1-(7-(2-amino-3-cyano-7-fluorobenzo[b]thiophen-4-yl)-6-chloro-8-fluoro-2-(((2R,7aS)-2-fluorotetrahydro-1H-pyrrolizin-7a(5H)-yl)methoxy)quinazolin-4-yl)piperidine-4-carboxylate] |
| 5 | 8 | 9 | 354 | 653 | 230 | CN(CCCC(=O)N(C)c1ccncc1)c1nc(OC[C@@]23CCCN2C[C@H](F)C3)nc2c(F)c(-c3ccc(F)c4sc(N)c(C#N)c34)c(Cl)cc12 [Example 267, 4-((7-(2-amino-3-cyano-7-fluorobenzo[b]thiophen-4-yl)-6-chloro-8-fluoro-2-(((2R,7aS)-2-fluorotetrahydro-1H-pyrrolizin-7a(5H)-yl)methoxy)quinazolin-4-yl)(methyl)amino)-N-methyl-N-(pyridin-4-yl) butanamide] |
| 183 | 134 | 103 | 323 | 701 | 1320 | CCc1c(F)ccc2cc(O)cc(-c3ncc4c(N(C)CC(C)CC(=O)N(C)C(C)=O)nc(OC[C@@]56CCCN5C[C@H](F)C6)nc4c3F)c12 (stereo partly drawn) [Example 283, N-acetyl-4-((7-(8-ethyl-7-fluoro-3-hydroxynaphthalen-1-yl)-8-fluoro-2-(((2R,7aS)-2-fluorotetrahydro-1H-pyrrolizin-7a(5H)-yl)methoxy)pyrido[4,3-d]pyrimidin-4-yl)(methyl)amino)-N,3-dimethylbutanamide] |
| 131 | 179 | 264 | > 10000 | 621 | > 10000 | Cc1ccn(C(=O)CCN(C)c2cc(O[C@@H](C)[C@@H]3CCCN3C)nc(-c3noc([C@]4(C)CCCc5sc(N)c(C#N)c54)n3)n2)n1 [Example 320, (R)-2-amino-4-methyl-4-(3-(4-(methyl (3-(3-methyl-1H-pyrazol-1-yl)-3-oxopropyl)amino)-6-((S)-1-((S)-1-methylpyrrolidin-2-yl)ethoxy)pyrimidin-2-yl)-1,2,4-oxadiazol-5-yl)-4,5,6,7-tetrahydrobenzo[b]thiophene-3-carbonitrile] |
| 17 | 27 | 26 | 236 | 4320 | 432 | Cc1ccn(C(=O)CCCCN(C)c2nc(OC[C@@]34CCCN3C[C@H](F)C4)nc3c(F)c(-c4ccc(F)c5sc(N)c(C#N)c45)c(Cl)cc23)n1 [Example 199, 2-amino-4-(6-chloro-8-fluoro-2-(((2R,7aS)-2-fluorotetrahydro-1H-pyrrolizin-7a(5H)-yl)methoxy)-4-(methyl(5-(3-methyl-1H-pyrazol-1-yl)-5-oxopentyl)amino)quinazolin-7-yl)-7-fluorobenzo[b]thiophene-3-carbonitrile] |
